Test results reported in US7452914B2, “Spiro-benzo[c]chromene derivatives useful as modulators of the estrogen receptors” (Janssen Pharmaceutica N.V., priority 2004, dated 2008).
Where two headings read alike, the source gives them in different places.

Key:
MCF-7 cells = assay: MCF-7 Cell Proliferation Assay (14C-thymidine incorporation); format: cell-based; details: for EC50: MCF7, agonist mode, increase in 14C-thymidine relative to vehicle control, read-out: Agonist (No.); for IC50: 10 nM 17β-estradiol added, 14C-thymidine, read-out: Antagonist (No.)
Description: This assay was run according to the procedure described by Welshons, et al., (Breast Cancer Res. Treat., 1987, 10(2), 169-75), with minor modification.
Briefly, MCF-7 cells (from Dr. C. Jordan, Northwestern University) were maintained in RPMI 1640 phenol red free medium (Gibco) in 10% FBS (Hyclone), supplemented with bovine insulin and non-essential amino acid (Sigma). The cells were initially treated with 4-hydoxyltamoxifen (10^−8 M) and let stand at 37° C. for 24 hours. Following this incubation with tamoxifen, the cells were treated with compounds at various concentrations.
Compounds to be tested in the agonist mode were added to the culture media at varying concentrations. Compounds to be treated in the antagonist mode were prepared similarly, and 10 nM 17β-estradiol was also added to the culture media. The cells were incubated for 24 hours at 37° C. Following this incubation, 0.1 µCi of ^14C-thymidine (56 mCi/mmol, Amersham) was added to the culture media and the cells were incubated for an additional 24 hours at 37° C. The cells were then washed twice with Hank's buffered salt solution (HBSS) (Gibco) and counted with a scintillation counter. The increase in the ^14C-thymidine in the compound treated cells relative to the vehicle control cells were reported as percent increase in cell proliferation.

[1] = test system: Human Endometrial Ishikawa Cells; assay: Alkaline Phosphatase Assay in Human Endometrial Ishikawa Cells; format: cell-based; details: alkaline phosphatase activity, chemiluminescence; for EC50: 72 h, agonist mode, 3 days incubation, read-out: Agonist (No.); for IC50: antagonist mode, 10 nM 17β-estradiol added, read-out: Antagonist (No.)
Description: This assay was run according to the procedure described by Albert et a., Cancer Res, […], 50(11), 330-6-10, with minor modification.
Ishikawa cells (from ATCC) were maintained in DMEM/F12 (1:1) phenol red free medium (Gibco) supplemented with 10% calf serum (Hyclone). 24 hours prior to testing, the medium was changed to DMEM/F12 (1:1) phenol red free containing 2% calf serum.
Compounds to be tested in the agonist mode were added to the culture media at varying concentrations. Compounds to be treated in the antagonist mode were prepared similarly, and 10 nM 17β-estradiol was also added to the culture media. The cells were then incubated at 37° C. for 3 days. On the fourth day, the media was remove, 1 volume of 1× Dilution Buffer (Clontech) was added to the well followed by addition of 1 volume of Assay Buffer (Clontech). The cells were then incubated at room temperature for 5 minutes. 1 volume of freshly prepared Chemiluminescence Buffer (1 volume of chemiluminescent substrate (CSPD) in 19 volume Chemiluminescent Enhancer with final concentration of CSPD at 1.25 mM; Sigma Chemical Co.) was added. The cells were incubated at room temperature for 10 minutes and then quantified on a luminometer. The increase of chemiluminescence over vehicle control was used to calculate the increase in alkaline phosphatase activity.

[2] = Homo sapiens, MCF7, antagonist mode

EC50 (MCF-7 cells; Homo sapiens) [nM] | IC50 (MCF-7 cells; [2]) [nM] | EC50 ([1]; Homo sapiens) [nM] | IC50 ([1]; Homo sapiens) [nM] | IC50 (MCF-7 cells; antagonist mode) [nM] | IC50 [1] [nM] | Compound
> 10000 | > 10000 | > 10000 | 1020 | – | – | Oc1ccc2c(c1)O[C@@H](c1ccc(OCCN3CCCCC3)cc1)C1=C2CCC2(C1)SCCS2 (stereo in doubt) [S*-11, 9S*-2-(Hydroxy)-{9-[4′-(2′-piperidinyl-ethoxy)-phenyl]-11,14-spiro[4,5]-5,6,7,8-tetrahydro-9H-benzo[c]chromene]
> 10000 | > 10000 | > 10000 | > 10000 | – | – | O=S1(=O)CCCS(=O)(=O)C12CCC1=C(C2)C(c2ccc(OCCN3CCCCC3)cc2)Oc2cc(O)ccc21 (stereo not drawn) [Compound 17]
> 10000 | > 10000 | > 10000 | 1050 | – | – | Oc1ccc2c(c1)OC(c1ccc(OCCN3CCCC3)cc1)C1=C2CCC2(C1)SCCS2 (stereo not drawn) [Compound 13]
> 10000 | 672 | > 10000 | 41.9 | – | – | Oc1ccc2c(c1)O[C@H](c1ccc(OCCN3CCCCC3)cc1)C1=C2CCC2(C1)SCCS2 (stereo in doubt) [R*-11, 9R*-2-(Hydroxy)-{9-[4′-(2′-piperidinyl-ethoxy)-phenyl]-11,14-spiro[4,5]-5,6,7,8-tetrahydro-9H-benzo[c]chromene]

The remaining lines, values behind:

Compound | EC50 (MCF-7 cells; Homo sapiens) [nM] | IC50 (MCF-7 cells; [2]) [nM] | EC50 ([1]; Homo sapiens) [nM] | IC50 ([1]; Homo sapiens) [nM] | IC50 (MCF-7 cells; antagonist mode) [nM] | IC50 [1] [nM]
Oc1ccc2c(c1)OC(c1ccc(OCCN3CCCCC3)cc1)C1=C2CCC2(C1)SCCS2 (stereo not drawn) [Compound 11] | > 10000 | 1060 | > 10000 | 29.6 | – | –
Oc1ccc2c(c1)OC(c1ccc(OCCN3CCCCC3)cc1)C1=C2CCC2(C1)SCCCS2 (stereo not drawn) [Compound 12] | > 10000 | 686 | > 10000 | 35.1 | – | –
9R*-2″,2″-Dimethyl-propionic Acid-{9-[4′-(2′-piperidinyl-ethoxy)-phenyl]-11,15-spiro[5,5]-5,6,7,8-tetrahydro-9H-benzo[c]chromen-2-yl Ester [R*-16] | – | – | – | – | 271 | 25.8
9S*-2″,2″-Dimethyl-propionic Acid-{9-[4′-(2′-piperidinyl-ethoxy)-phenyl]-11,14-spiro[4,5]-5,6,7,8-tetrahydro-9H-benzo[c]chromen-2-yl Ester [S*-15] | – | – | – | – | > 10000 | > 10000
9S*-2″,2″-Dimethyl-propionic Acid-{9-[4′-(2′-piperidinyl-ethoxy)-phenyl]-11,15-spiro[5,5]-5,6,7,8-tetrahydro-9H-benzo[c]chromen-2-yl Ester [S*-16] | – | – | – | – | > 10000 | > 10000
9R*-2″,2″-Dimethyl-propionic Acid-{9-[4′-(2′-piperidinyl-ethoxy)-phenyl]-11,14-spiro[4,5]-5,6,7,8-tetrahydro-9H-benzo[c]chromen-2-yl Ester [R*-15] | – | – | – | – | 770 | 220
CCN(CC)CCOc1ccc(C2Oc3cc(O)ccc3C3=C2CC2(CC3)SCCS2)cc1 (stereo not drawn) [Compound 14] | > 10000 | 4970 | > 10000 | 65.9 | – | –
